According to patent US12391737B2, “Soluble NPY2 receptor agonists” (Boehringer Ingelheim International GmbH, priority 2020, dated 2025):

Experiment: Solubility determination
Settings: for Sol6: pH 6; for Sol7: pH 7
Procedure: Peptides (as TFA salts) were weighed out in a filter unit (Mini-UniPrep Syringeless Filter 0.45 μm, Whatman), and 0.1 M sodium diphosphate buffer at pH 6.4 or 7.0 was added to achieve 10 mg/ml final concentration. The peptide was dissolved by shaking the filter unit horizontally at 600 rpm for 2 hours at room temperature. The sample was filtered, to remove any insoluble particles and diluted to 1 mg/ml in 50% acetonitrile. The control was prepared by weighing out the corresponding peptide and dissolving it in 50% acetonitrile to final concentration of 1 mg/ml. Both the control and sample were analysed with reversed phase chromatography. The area under the peak of the sample was compared to the control and the solubility was calculated based on that ratio.
The pH was measured and recorded for each sample.
System: UltiMate 3000 UPLC, ThermoFisher
Mobile phase A: 5% acetonitrile, 95% water, 0.03% trifluoracetic acid.
Mobile phase B: 95% acetonitrile, 5% water, 0.03% trifluoracetic acid.
Gradient: 0-100% mobile phase B (2 mins.)
Column temperature: 50° C.

Row | Compound | Sol6 [mg/mL] | Sol7 [mg/mL]
1 | CC(C)CC(=O)N[C@@H](C)C(=O)N1CCC[C@H]1C(=O)N[C@@H](CCC(=O)O)C(=O)N[C@@H](CCCCNC(=O)CCCCCNC(=O)CC[C@H](NC(=O)CCCCCCCCCCCCCCCCC(=O)O)C(=O)O)C(=O)N1CCC[C@H]1C(=O)N[C@@H](CCC(=O)O)C(=O)N[C@@H](C)C(=O)N[C@@H](CC(=O)O)C(=O)N[C@@H](C)C(=O)N[C@@H](CCC(=O)O)C(=O)N1CCC[C@H]1C(=O)N[C@@H](CCC(=O)O)C(=O)N[C@@H](CCC(=O)O)C(=O)N[C@@H](CC(C)C)C(=O)N[C@@H](CCC(N)=O)C(=O)N[C@@H](CCCNC(=N)N)C(=O)N[C@@H](Cc1ccc(O)cc1)C(=O)N[C@@H](Cc1ccc(O)cc1)C(=O)N[C@H](C(=O)N[C@@H](C)C(=O)N[C@@H](CC(C)C)C(=O)N[C@@H](CCCNC(=N)N)C(=O)N[C@@H](Cc1c[nH]cn1)C(=O)N[C@@H](Cc1ccc(O)cc1)C(=O)N[C@@H](Cc1ccc(O)cc1)C(=O)N[C@@H](CC(N)=O)C(=O)N[C@@H](Cc1c[nH]c2ccccc12)C(=O)N[C@@H](CC(C)C)C(=O)N[C@H](C(=O)N[C@@H](CCCNC(=N)N)C(=O)N[C@@H](CCC(N)=O)C(=O)N[C@@H](CCCNC(=N)N)C(=O)N[C@@H](Cc1ccc(O)cc1)C(N)=O)[C@@H](C)O)C(C)C [Compound 6, N{alpha-4}-(3-methylbutanoyl)-N{epsilon-7}-(6-[(4S)-4-carboxy-4-(17-carboxyheptadecanamido)butanamido]hexanoyl)[4A,7K,9E,10A,13E,18Q,22V,23A,28Y,30W,31L]-hPYY(4-36)] | 9.6 | 10.0
2 | CC(C)CC(=O)N[C@@H](C)C(=O)N1CCC[C@H]1C(=O)N[C@@H](C)C(=O)N[C@@H](CCCCNC(=O)CCCCCNC(=O)CC[C@H](NC(=O)CCCCCCCCCCCCCCCCC(=O)O)C(=O)O)C(=O)N1CCC[C@H]1C(=O)N[C@@H](CCC(=O)O)C(=O)N[C@@H](C)C(=O)N[C@@H](C)C(=O)N[C@@H](C)C(=O)N[C@@H](CCC(=O)O)C(=O)N1CCC[C@H]1C(=O)N[C@@H](CCC(=O)O)C(=O)N[C@@H](CCC(=O)O)C(=O)N[C@@H](CC(C)C)C(=O)N[C@@H](CCC(N)=O)C(=O)N[C@@H](CCCNC(=N)N)C(=O)N[C@@H](Cc1ccc(O)cc1)C(=O)N[C@@H](Cc1ccc(O)cc1)C(=O)N[C@H](C(=O)N[C@@H](C)C(=O)N[C@@H](CC(C)C)C(=O)N[C@@H](CCCNC(=N)N)C(=O)N[C@@H](Cc1c[nH]cn1)C(=O)N[C@@H](Cc1ccc(O)cc1)C(=O)N[C@@H](Cc1ccc(O)cc1)C(=O)N[C@@H](CC(N)=O)C(=O)N[C@@H](Cc1c[nH]c2ccccc12)C(=O)N[C@@H](CC(C)C)C(=O)N[C@H](C(=O)N[C@@H](CCCNC(=N)N)C(=O)N[C@@H](CCC(N)=O)C(=O)N[C@@H](CCCNC(=N)N)C(=O)N[C@@H](Cc1ccc(O)cc1)C(N)=O)[C@@H](C)O)C(C)C [Compound 10, N{alpha-4}-(3-methylbutanoyl)-N{epsilon-7}-(6-[(4S)-4-carboxy-4-(17-carboxyheptadecanamido)butanamido]hexanoyl)[4A,6A,7K,9E,10A,11A,13E,18Q,22V,23A,28Y,30W,31L]-hPYY(4-36)] | 0.0 | 0.0
3 | CC(C)CC(=O)N[C@@H](C)C(=O)N1CCC[C@H]1C(=O)N[C@@H](C)C(=O)N[C@@H](CCCCNC(=O)CCCCCNC(=O)CC[C@H](NC(=O)CCCCCCCCCCCCCCCCC(=O)O)C(=O)O)C(=O)N1CCC[C@H]1C(=O)N[C@@H](CCC(=O)O)C(=O)N[C@@H](CCC(=O)O)C(=O)N[C@@H](CC(=O)O)C(=O)N[C@@H](C)C(=O)N[C@@H](CO)C(=O)N1CCC[C@H]1C(=O)N[C@@H](CCC(=O)O)C(=O)N[C@@H](CCC(=O)O)C(=O)N[C@@H](CC(C)C)C(=O)N[C@@H](CCC(N)=O)C(=O)N[C@@H](CCCNC(=N)N)C(=O)N[C@@H](Cc1ccc(O)cc1)C(=O)N[C@@H](Cc1ccc(O)cc1)C(=O)N[C@H](C(=O)N[C@@H](CO)C(=O)N[C@@H](CC(C)C)C(=O)N[C@@H](CCCNC(=N)N)C(=O)N[C@@H](Cc1c[nH]cn1)C(=O)N[C@@H](Cc1ccc(O)cc1)C(=O)N[C@@H](Cc1ccc(O)cc1)C(=O)N[C@@H](CCC(N)=O)C(=O)N[C@@H](Cc1c[nH]c2ccccc12)C(=O)N[C@@H](CC(C)C)C(=O)N[C@H](C(=O)N[C@@H](CCCNC(=N)N)C(=O)N[C@@H](CCC(N)=O)C(=O)N[C@@H](CCCNC(=N)N)C(=O)N[C@@H](Cc1ccc(O)cc1)C(N)=O)[C@@H](C)O)C(C)C [Compound 78, N{alpha-4}-(3-methylbutanoyl)-N{epsilon-7}-(6-[(4S)-4-carboxy-4-(17-carboxyheptadecanamido)butanamido]hexanoyl)-[4A,6A,7K,9E,18Q,22V,28Y,29Q,30W,31L]-hPYY(4-36)] | 8.1 | 7.6
4 | CC(C)CC(=O)N[C@@H](C)C(=O)N1CCC[C@H]1C(=O)N[C@@H](CCC(=O)O)C(=O)N[C@@H](CCCCNC(=O)CCCCCNC(=O)CC[C@H](NC(=O)CCCCCCCCCCCCCCCCC(=O)O)C(=O)O)C(=O)N1CCC[C@H]1C(=O)N[C@@H](CCC(=O)O)C(=O)N[C@@H](CCC(=O)O)C(=O)N[C@@H](CC(=O)O)C(=O)N[C@@H](C)C(=O)N[C@H](C(=O)N1CCC[C@H]1C(=O)N[C@@H](CCC(=O)O)C(=O)N[C@@H](CCC(=O)O)C(=O)N[C@@H](CC(C)C)C(=O)N[C@@H](CCC(N)=O)C(=O)N[C@@H](CCCNC(=N)N)C(=O)N[C@@H](Cc1ccc(O)cc1)C(=O)N[C@@H](CCC(N)=O)C(=O)N[C@H](C(=O)N[C@@H](CO)C(=O)N[C@@H](CC(C)C)C(=O)N[C@@H](CCCNC(=N)N)C(=O)N[C@@H](Cc1c[nH]cn1)C(=O)N[C@@H](Cc1ccc(O)cc1)C(=O)N[C@@H](Cc1ccc(O)cc1)C(=O)N[C@@H](CC(N)=O)C(=O)N[C@@H](Cc1c[nH]c2ccccc12)C(=O)N[C@@H](CC(C)C)C(=O)N[C@H](C(=O)N[C@@H](CCCNC(=N)N)C(=O)N[C@@H](CCC(N)=O)C(=O)N[C@@H](CCCNC(=N)N)C(=O)N[C@@H](Cc1ccc(O)cc1)C(N)=O)[C@@H](C)O)C(C)C)[C@@H](C)O [Compound 115, N{alpha-4}-(3-methylbutanoyl)-N{epsilon-7}-(6-[(4S)-4-carboxy-4-(17-carboxyheptadecanamido)butanamido]hexanoyl)-[4A,7K,9E,13T,18Q,21Q,22V,28Y,30W,31L]-hPYY(4-36)] | 9.0 | 8.5

More lines, now with the values ahead:

Row | Sol6 [mg/mL] | Sol7 [mg/mL] | Compound
5 | 0.0 | 0.0 | CC[C@H](C)[C@H](NC(=O)[C@H](CCC(=O)O)NC(=O)[C@H](CCC(=O)O)NC(=O)[C@@H]1CCCN1C(=O)[C@H](CCC(=O)O)NC(=O)[C@H](C)NC(=O)[C@H](C)NC(=O)[C@H](C)NC(=O)[C@H](CCC(=O)O)NC(=O)[C@@H]1CCCN1C(=O)[C@H](CCCCNC(=O)CCCCCNC(=O)CC[C@H](NC(=O)CCCCCCCCCCCCCCCCC(=O)O)C(=O)O)NC(=O)[C@H](C)NC(=O)[C@@H]1CCCN1C(=O)[C@H](C)NC(=O)CC(C)C)C(=O)N[C@@H](CCC(N)=O)C(=O)N[C@@H](CCCNC(=N)N)C(=O)N[C@@H](Cc1ccc(O)cc1)C(=O)N[C@@H](Cc1ccc(O)cc1)C(=O)N[C@H](C(=O)N[C@@H](C)C(=O)N[C@@H](CC(C)C)C(=O)N[C@@H](CCCNC(=N)N)C(=O)N[C@@H](Cc1c[nH]cn1)C(=O)N[C@@H](Cc1ccc(O)cc1)C(=O)N[C@@H](Cc1ccc(O)cc1)C(=O)N[C@@H](CC(N)=O)C(=O)N[C@@H](Cc1c[nH]c2ccccc12)C(=O)N[C@@H](CC(C)C)C(=O)N[C@H](C(=O)N[C@@H](CCCNC(=N)N)C(=O)N[C@@H](CCC(N)=O)C(=O)N[C@@H](CCCNC(=N)N)C(=O)N[C@@H](Cc1ccc(O)cc1)C(N)=O)[C@@H](C)O)C(C)C [Compound 116, N{alpha-4}-(3-methylbutanoyl)-N{epsilon-7}-(6-[(4S)-4-carboxy-4-(17-carboxyheptadecanamido)butanamido]hexanoyl)-[4A,6A,7K,9E,10A,11A,13E,17I,18Q,22V,23A,28Y,30W,31L]-hPYY(4-36)]
6 | 8.8 | 9.1 | CC(C)CC(=O)N[C@@H](C)C(=O)N1CCC[C@H]1C(=O)N[C@@H](C)C(=O)N[C@@H](CCCCNC(=O)CCCCCNC(=O)CC[C@H](NC(=O)CCCCCCCCCCCCCCCCC(=O)O)C(=O)O)C(=O)N1CCC[C@H]1C(=O)N1CCC[C@H]1C(=O)N[C@@H](CCC(=O)O)C(=O)N[C@@H](CC(=O)O)C(=O)N[C@@H](C)C(=O)N[C@@H](CCC(=O)O)C(=O)N1CCC[C@H]1C(=O)N[C@@H](CCC(=O)O)C(=O)N[C@@H](CCC(=O)O)C(=O)N[C@@H](CC(C)C)C(=O)N[C@@H](CCC(N)=O)C(=O)N[C@@H](CCCNC(=N)N)C(=O)N[C@@H](Cc1ccc(O)cc1)C(=O)N[C@@H](Cc1ccc(O)cc1)C(=O)N[C@H](C(=O)N[C@@H](CO)C(=O)N[C@@H](CC(C)C)C(=O)N[C@@H](CCCNC(=N)N)C(=O)N[C@@H](Cc1c[nH]cn1)C(=O)N[C@@H](Cc1ccc(O)cc1)C(=O)N[C@@H](Cc1ccc(O)cc1)C(=O)N[C@@H](CC(N)=O)C(=O)N[C@@H](Cc1c[nH]c2ccccc12)C(=O)N[C@@H](CC(C)C)C(=O)N[C@H](C(=O)N[C@@H](CCCNC(=N)N)C(=O)N[C@@H](CCC(N)=O)C(=O)N[C@@H](CCCNC(=N)N)C(=O)N[C@@H](Cc1ccc(O)cc1)C(N)=O)[C@@H](C)O)C(C)C [Compound 165, N{alpha-4}-(3-methylbutanoyl)-N{epsilon-7}-(6-[(4S)-4-carboxy-4-(17-carboxyheptadecanamido)butanamido]hexanoyl)-[4A,6A,7K,9P,13E,18Q,22V,28Y,30W,31L]-hPYY(4-36)]
